The results in this text go back to US10440955B2, “Methods comprising a biocidal polyamine” (Curza Global, LLC, priority 2013, dated 2019).

≈ marks a conversion by molar mass, not a printed value. Counter-ions that a name gives are not always drawn. Like-named read-outs stand apart in the source and are kept apart here. A value given as a limit tells only on which side of the number the result lay.

One data set relates to MRSA. Nature of the data set: MIC, 96-well CAMHB, 10^5 to 10^2 CFU/mL in 24 hours. Conditions: Staphylococcus aureus, MRSA, read-out: MIC (MRSA). It counts as cell-based, Staphylococcus aureus. The procedure: (§1) To determine the MIC of polyamine compounds, the protocol described herein was used.
In brief, a 0.5 McFarland of each bacterial isolate was made. A 0.5 McFarland is a measure of turbidity in a liquid sample that contains approximately 1×10^∧8 CFU/mL. The 0.5 McFarland standard was diluted in cation adjusted Mueller Hinton Broth (CAMHB), and 50 μL of broth were added to a well of a 96-well plate. In addition, 50 μL of CAMHB that contained a desired concentration of antimicrobial were also added to the well for a final volume of 100 μL and a final concentration of approximately 5×10^4 CFU/well (which equated to approximately 5×10^5 CFU/mL). Each well contained a desired amount of polyamine compound in order to experimentally determine the MIC. Each 96-well plate was incubated at 37° C. for 24 hours. The contents of each well were plated on tryptic soy agar (TSA). TSA plates were incubated for 37° C. for 24 hours after which the number of CFU were counted and used to calculate the CFU/mL that remained after exposure to varying concentrations of compound. This procedure was repeated n=8 times for each concentration of antimicrobial. […]

A further data set concerns P. aeruginosa. The description is as above. It counts as cell-based, Pseudomonas aeruginosa. Conditions: for MIC: Pseudomonas aeruginosa. The procedure: as §1
In brief, a 0.5 McFarland of each bacterial isolate was made. A 0.5 McFarland is a measure of turbidity in a liquid sample that contains approximately 1×10^∧8 CFU/mL. The 0.5 McFarland standard was diluted in cation adjusted Mueller Hinton Broth (CAMHB), and 50 μL of broth were added to a well of a 96-well plate. In addition, 50 μL of CAMHB that contained a desired concentration of antimicrobial were also added to the well for a final volume of 100 μL and a final concentration of approximately 5×10^4 CFU/well (which equated to approximately 5×10^5 CFU/mL). Each well contained a desired amount of polyamine compound in order to experimentally determine the MIC. Each 96-well plate was incubated at 37° C. for 24 hours. The contents of each well were plated on tryptic soy agar (TSA). TSA plates were incubated for 37° C. for 24 hours after which the number of CFU were counted and used to calculate the CFU/mL that remained after exposure to varying concentrations of compound. This procedure was repeated n=8 times for each concentration of antimicrobial.

For a further data set, the system named is L-929 cells (ATCC CCL-1). Nature of the data set: Minimal Essential Media (MEM) Elution cytotoxicity test. Conditions: Table 10A. It is filed as cell-based. As for the experimental part:
Summary: The Minimal Essential Media (MEM) Elution test was designed to determine the cytotoxicity of extractable substances. The test article was added to cell monolayers and incubated. The cell monolayers were examined and scored based on the degree of cellular destruction.
Acceptance Criteria: The United States Pharmacopeia & National Formulary (USP <87>) states that the test article meets the requirements, or receives a passing score (Pass) if the reactivity grade is not greater than grade 2 or a mild reactivity.
Acceptance criteria were based upon the negative and media controls receiving “0” reactivity grades and positive controls receiving a 3-4 reactivity grades (moderate to severe).
The cell monolayers were examined microscopically. The wells were scored as to the degree of discernable morphological cytotoxicity on a relative scale of 0 to 4:
The results from the three wells were averaged to give a final cytotoxicity score.
[…] This initial concentration was then diluted 1: 2, 1:4, 1:8, and 1:16. Multiple well cell culture plates were seeded with a verified quantity of industry standard L-929 cells (ATCC CCL-1) and incubated until approximately 80% confluent. The test articles and control extracts were added to the cell monolayers in triplicate. The cells were incubated at 37±1° C. with 5±1% CO2 for 48±3 hours.

[1] abbreviates: read-out: MIC (P. aeruginosa), Table 5.
Where [2] appears, read: Table 5, read-out: MIC (P. aeruginosa).

What is called MIC is the smallest concentration in the dilution series that meets the test's criterion for growth inhibition.

Consider `NCCCNCCCNCc1cc(CNCCCNCCCN)cc(OCC2CCCCC2)c1` [CZ-101, N^1,N^1′-((5-(cyclohexylmethoxy)-1,3-phenylene)bis(methylene))bis(N^3-(3-aminopropyl)propane-1,3-diamine), hydrochloride salt], for which the MIC with MRSA and in the data set on P. aeruginosa (setting [1]) was below 50 µM in each case.
Regarding `CC(C)CNCCCOc1cc(CNCCCNCCCN)cc(CNCCCNCCCN)c1` [CZ-107, N^1,N^1′-((5-(3-(isoButylammonio)propoxy)-1,3-phenylene)bis(methylene))-bis(N^3-(3-ammoniopropyl)propane-1,3-diaminium) chloride], the MIC was below 50 µM with MRSA and 50 to 100 µM in the data set on P. aeruginosa (setting [1]).
Regarding `CC(C)CNCCCNCCCNCc1cc(CNCCCNCCCNCC(C)C)cc(OC2CCCCC2)c1` [CZ-104, N^1,N^1′-((5-(cyclohexyloxy)-1,3-phenylene)bis(methylene))bis(N^3-(3-(isobutylamino)propyl)propane-1,3-diamine)], the MIC with MRSA (Table 5) was below 50 µM. In addition, in the data set with P. aeruginosa (Table 5), the “MIC (P. aeruginosa)” value is “++ to +++”.
Take `NCCCNCCCNCc1cc(CNCCCNCCCN)cc(-c2ccc(F)cc2)c1` [CZ-75, N^1,N^1′-((4′-fluoro-[1,1′-biphenyl]-3,5-diyl)bis(methylene))bis(N3-(3-aminopropyl)propane-1,3-diamine), hydrochloride salt]: the MIC in the data set on MRSA and in the data set on P. aeruginosa (setting [1]) was below 50 µM each time.
As to `c1cc(CNCCCNCCCNCC2CCCCC2)cc(CNCCCNCCCNCC2CCCCC2)c1` [CZ-97, N^1,N^1′-(1,3-phenylenebis(methylene))bis(N^3-(3-((cyclohexylmethyl)-amino)propyl)propane-1,3-diamine)], the MIC with MRSA (Table 5) and with P. aeruginosa (setting [2]) was below 50 µM in each case.
With `NCCCNCCCNCc1cc(CO)cc(CNCCCNCCCN)c1` [CZ-53, (3,5-bis(((3-((3-aminopropyl)amino)propyl)amino)methyl)phenyl)-methanol, hydrochloride salt], in the data set with P. aeruginosa (Table 5), the “MIC (P. aeruginosa)” value was “++ to +++”.
Regarding `NCCCNCCCNCc1cc(CNCCCNCCCN)cc(Oc2ccccc2)c1` [CZ-74, N^1,N^1′-((5-phenoxy-1,3-phenylene)bis(methylene))bis(N^3-(3-aminopropyl)propane-1,3-diamine), hydrochloride salt], the MIC in the data set on MRSA and with P. aeruginosa (setting [1]) was below 50 µM each time.
In the case of `NCCCCNCc1ccccc1` [CZ-3, N^1-benzylbutane-1,4-diaminium chloride], in the data set on P. aeruginosa (setting [1]), the MIC was above 100 µM.
On to `CC(C)CNCCCNCCCNCc1cccc(CNCCCNCCCNCC(C)C)c1` [CZ-108, N^1,N^1′-(1,3-phenylenebis(methylene))bis(N^3-(3-(isobutylamino)propyl)propane-1,3-diamine)], for which the MIC in the data set on MRSA (Table 5) and in the data set on P. aeruginosa (setting [2]) was below 50 µM in each case.
In the case of `CC(C)Oc1cc(CNCCCNCCCN)cc(CNCCCNCCCN)c1` [CZ-93, N^1,N^1′-((5-isopropoxy-1,3-phenylene)bis(methylene))bis(N^3-(3-aminopropyl)propane-1,3-diamine)], the MIC with MRSA (Table 5) and in the data set on P. aeruginosa (setting [2]) was below 50 µM throughout.
Take `CCCCCCNCCCNCCCNCc1cccc(CNCCCNCCCNCCCCCC)c1` [CZ-113, N^1,N^1′-(1,3-phenylenebis(methylene))bis(N^3-(3-(hexylamino)propyl)propane-1,3-diamine)]: the MIC in the data set with MRSA (Table 5) and in the data set with P. aeruginosa (setting [2]) was below 50 µM in each case.
For the compound `CC(C)CNCCCNCC(C)(C)CNCc1cc(CNCC(C)(C)CNCCCNCC(C)C)cc(-c2ccccc2)c1` [CZ-112, N^1,N^1′-([1,1′-biphenyl]-3,5-diylbis(methylene))bis(N^3-(3-(isobutylamino)propyl)-2,2-dimethylpropane-1,3-diamine)], the MIC with MRSA (Table 5) and in the data set on P. aeruginosa (setting [2]) was below 50 µM each time.
For the compound `CCCCCCNCCCNCCCCNCc1cccc(CNCCCCNCCCNCCCCCC)c1` [CZ-119, N^1,N^1′-(1,3-phenylenebis(methylene))bis(N^4-(3-(hexylamino)propyl)butane-1,4-diamine)], the MIC in the data set with MRSA (Table 5) and with P. aeruginosa (setting [2]) was below 50 µM in each case.
`CC(C)CNCCCNCCCNCc1cc(CNCCCNCCCNCC(C)C)cc(-c2cnn(C)c2)c1` [CZ-102, N^1,N^1′-((5-(1-methyl-1H-pyrazol-4-yl)-1,3-phenylene)bis(methylene))bis(N3-(3-(isobutylamino)propyl)propane-1,3-diamine)]: the MIC was below 50 µM in the data set with MRSA (Table 5) and 50 to 100 µM (≈ 27.8 to 55.7 µg/mL) in the data set on P. aeruginosa (setting [2]).
As for `CN(C)CCCCCCCCCCCCN(C)Cc1ccccc1` [CZ-10, N^1-Benzyl-N^1,N^12,N^12-trimethyldodecane-1,12-diamine, hydrochloride salt], in the data set on MRSA, the MIC is above 100 µM.
With `CCC(CC)COc1cc(CNCCCNCCCNCC(C)C)cc(CNCCCNCCCNCC(C)C)c1` [CZ-91, N^1,N^1′-((5-(2-ethylbutoxy)-1,3-phenylene)bis(methylene))bis(N^3-(3-(isobutylammonio)propyl)propane-1,3-diaminium) chloride], the MIC in the data set with MRSA and in the data set on P. aeruginosa (setting [1]) was below 50 µM throughout.
For the compound `NCCCNCCCNCc1cc(CNCCCNCCCN)cc(-c2cc(C(F)(F)F)cc(C(F)(F)F)c2)c1` [CZ-70, N^1,N^1′-((3′,5′-bis(trifluoromethyl)-[1,1′-biphenyl]-3,5-diyl)bis(methylene))bis(N^3-(3-aminopropyl)propane-1,3-diamine), hydrochloride salt], the MIC in the data set with MRSA and in the data set on P. aeruginosa (setting [1]) was below 50 µM in each case.
Turning to `c1ccc(CNCCCNCCCNCc2cc(CNCCCNCCCNCc3ccccc3)cc(-c3ccccc3)c2)cc1` [CZ-94, N^1,N^1′-([1,1′-biphenyl]-3,5-diylbis(methylene))bis(N^3-(3-(benzylamino)propyl)propane-1,3-diamine)], the MIC in the data set with MRSA (Table 5) and with P. aeruginosa (setting [2]) was below 50 µM in each case.
With `CC(C)(C)OC(=O)NCCCNCCCNCc1cccc(CNCCCNCCCNC(=O)OC(C)(C)C)c1` [CZ-27, di-tert-butyl (((((1,3-phenylenebis(methylene))bis(azanediyl))bis(propane-3,1-diyl))bis(azanediyl))bis(propane-3,1-diyl))dicarbamate], the MIC with MRSA (Table 5) is above 100 µM.
For `NCCCCCCNCc1ccccc1` [CZ-9, N^1-benzylhexane-1,6-diamine, hydrochloride salt], the MIC in the data set on MRSA was above 100 µM.
Turning to `NCCCNC(=O)c1cccc(C(=O)NCCCN)c1` [CZ-41], the MIC in the data set with MRSA (Table 5) was above 100 µM.
On to `NCCCCCCCCCCCCNCc1ccccc1` [CZ-5, N^1-benzyldodecane-1,12-diamine, hydrochloride salt], for which the MIC in the data set on MRSA is above 100 µM.
For `CC(C)Oc1ccc(-c2cc(CNCCCNCCCN)cc(CNCCCNCCCN)c2)cc1CNCCCNCCCN` [CZ-66, N^1,N^1′,N^1″-((4′-isopropoxy-[1,1′-biphenyl]-3,3′,5-triyl)tris(methylene))-tris(N^3-(3-aminopropyl)propane-1,3-diamine), hydrochloride salt], the “Results Pass/Fail” value is listed as “Fail (a numerical grade greater than 2 is considered a cytotoxic effect, or a failing score (Fail))” in the data set on L-929 cells (ATCC CCL-1) (25 μg/mL); “Fail (a numerical grade greater than 2 is considered a cytotoxic effect, or a failing score (Fail))” with L-929 cells (ATCC CCL-1) (dilution 1:2 of 25 μg/mL); “Pass (receives a passing score (Pass) if the reactivity grade is not greater than grade 2 or a mild reactivity)” in the data set on L-929 cells (ATCC CCL-1) (dilution 1:4 of 25 μg/mL); “Pass (receives a passing score (Pass) if the reactivity grade is not greater than grade 2 or a mild reactivity)” with L-929 cells (ATCC CCL-1) (dilution 1:8 of 25 μg/mL); “Pass (receives a passing score (Pass) if the reactivity grade is not greater than grade 2 or a mild reactivity)” in the data set with L-929 cells (ATCC CCL-1) (dilution 1:16 of 25 μg/mL).
For the compound `NCCCNCCCNCc1cccc(CNCCCNCCCN)c1` [CZ-25 (Bz)], in the data set on MRSA (Table 5), the MIC was below 50 µM.
